{
  "source": "patent US9457022B2",
  "about": "“Methods and compositions for treating or preventing symptoms of hormonal variations” (priority 2010, dated 2016)",
  "key": {"hot flashes [1]": {"tested_on": "hot flashes", "conditions": "cited from earlier work"}, "[2]": {"tested_on": "hot flashes, night sweats and other menopausal symptoms", "conditions": "for Impact on reducing the menopausal symptoms (hot flashes, night sweats): 2009, patient on Tamoxifen, Clonidine given with Vitamin E", "from_the_text": "One of ordinary skill in the art would appreciate that this specific example is not intended to limit the scope of the invention.\nIn September of 1993, a person who had been experiencing severe menstrual cycles required a partial hysterectomy. […] Approximately a year after surgery, they were placed on Cenestin™ (a kind of hormone replacement therapy, i.e., “HRT”).\nAt this time, the patient began taking dosages of Wellbutrin™ and receiving another hormone replacement therapy of estrogen and testosterone to treat the hot flashes, night sweats and other menopausal symptoms.\nIn November of 2008, the patient was diagnosed with Stage 2 breast cancer and the HRT was discontinued immediately. Subsequently, the patient underwent a lumpectomy and the removal of fourteen lymph nodes (one tested positive).\nIn December 2008, the patient went through an intense treatment of chemotherapy which lasted until April 2009. At this time, a less intense chemotherapy treatment was continued until November 2009. The patient also received radiation therapy from April 2009 until June 2009. At the end of the radiation therapy, the patient was started on a regimen of Tamoxifen™.\nClonidine™ is a direct-acting α2 adrenergic agonist that is used to treat several medical conditions. […] Both the Clonidine™ and the Wellbutrin™ were discontinued in June 2009.\nIt was originally developed for the treatment of epilepsy, and currently, gabapentin is widely used to relieve pain, especially neuropathic pain. […] At this time, the patient was treated with Effexor™ (generic name Venlafaxine), a medication which is used primarily for the treatment of major depression, generalized anxiety disorder, social anxiety disorder, obsessive—compulsive disorder, panic disorder, and menopausal hot flashes in adults.\nAt this time, the patient began Wellbutrin™ again to treat the hot flashes, night sweats and other menopausal symptoms.\nThe dosage continued and remained the same for another 5 days."}, "hot flashes [3]": {"tested_on": "hot flashes", "conditions": "men; double blind, cross over study; cited from earlier work"}, "hot flashes [4]": {"tested_on": "hot flashes", "experiment": "Dextromethorphan HBr in menopausal women with no breast cancer history; severity and frequency of hot flashes", "type": "in vivo, human", "conditions": "15 mg in the morning and 15 mg in the evening; summary of Table 1", "experimental": "The dosage given in these test cases was 15 mg in the morning and 15 mg in the evening of Dextromethorphan, e.g., DextromethorphanHBr. The decrease in the symptoms of hormonal variation was noted by assessing the severity and frequency of hot flashes."}},
  "note": "Read-outs that look alike come from different tables or passages of the source.",
  "data": [
    {"smiles": "CNCCC(Oc1ccc(C(F)(F)F)cc1)c1ccccc1", "note": "(stereo not drawn) [Fluoxetine]", "values": [
      {"measurement": "Reduction in hot-flash scores", "setting": "hot flashes [1]; 20 mg/day, placebo 36%", "result": 50, "unit": "%"}
    ]},
    {"smiles": "CC(=O)O[C@]1(C(C)=O)CC[C@H]2[C@@H]3C=C(C)C4=CC(=O)CC[C@]4(C)[C@H]3CC[C@@]21C", "note": "[megestrol acetate]", "values": [
      {"measurement": "Reduction in self-reported hot flash frequency", "setting": "hot flashes [1]; men and women, placebo 20%", "result": "~80", "unit": "%"}
    ]},
    {"smiles": "CC/C(=C(\\c1ccccc1)c1ccc(OCCN(C)C)cc1)c1ccccc1", "note": "[Tamoxifen™, tamoxifen]", "values": [
      {"measurement": "Hot flashes, night sweats and other menopausal symptoms since commencing treatment", "setting": "[2]; human, in vivo", "result": "increased in intensity"}
    ]},
    {"smiles": "COc1ccc(C(CN(C)C)C2(O)CCCCC2)cc1", "note": "(stereo not drawn) [venlafaxine]", "values": [
      {"measurement": "Impact on reducing the menopausal symptoms (hot flashes, night sweats)", "setting": "[2]", "result": "no impact"},
      {"measurement": "Reduction in hot-flash scores", "setting": "hot flashes [1]; randomized clinical trial, low dose (37.5 mg/day), placebo 27%", "result": 37, "unit": "%"},
      {"measurement": "Reduction in hot-flash scores", "setting": "hot flashes [1]; randomized clinical trial, moderate and high doses (75 and 150 mg/day), statistically significant", "result": 61, "unit": "%"}
    ]},
    {"smiles": "Clc1cccc(Cl)c1N=C1NCCN1", "note": "[clonidine]", "values": [
      {"measurement": "Impact on reducing the menopausal symptoms (hot flashes, night sweats)", "setting": "[2]", "result": "no impact"},
      {"measurement": "Difference from placebo effect in self-reported hot flash frequency", "setting": "hot flashes [3]", "result": "not statistically significant"},
      {"measurement": "Adverse effects (dry mouth, dizziness, blurred vision)", "setting": "hot flashes [1]; randomized clinical trials", "result": "common"},
      {"measurement": "Efficacy versus placebo in preventing hot flashes", "setting": "hot flashes [1]; randomized clinical trials", "result": "moderately more efficacious than placebo"},
      {"measurement": "Decrease of hot flash frequency greater than that seen with placebo", "setting": "hot flashes [1]; women treated with clonidine", "result": "10-15%"}
    ]},
    {"smiles": "CC(NC(C)(C)C)C(=O)c1cccc(Cl)c1", "note": "(stereo not drawn) [Wellbutrin™, bupropian]", "values": [
      {"measurement": "Impact on reducing the menopausal symptoms (hot flashes, night sweats)", "setting": "[2]", "result": "no impact"},
      {"measurement": "Frequency and intensity of hot flashes, night sweats and other menopausal symptoms (patient report)", "setting": "[2]; Wellbutrin together with hormone replacement therapy of estrogen and testosterone, from 2006", "result": "markedly reduced"}
    ]},
    {"smiles": "COc1ccc2c(c1)[C@]13CCCC[C@@H]1[C@H](C2)N(C)CC3", "note": "[Dextromethorphan HBr]", "values": [
      {"measurement": "Hot flashes, night sweats and other menopausal symptoms", "setting": "[2]; 30 mg per day (15 mg every 12 hours), by the third day", "result": "totally gone"},
      {"measurement": "Occurrence of hot flashes, night sweats and other menopausal symptoms", "setting": "[2]; 30 mg per day (15 mg every 12 hours), two days after starting", "result": "reduced significantly"},
      {"measurement": "Time to reoccurrence of menopausal symptoms after discontinuation", "setting": "[2]; after 8 days of 30 mg per day", "result": "≤ 24", "unit": "h"},
      {"measurement": "Hot flashes, night sweats and menopausal symptoms after Wellbutrin was discontinued", "setting": "[2]; continuing Dextromethorphan HBr alone", "result": "did not reoccur"},
      {"measurement": "Time to elimination of symptoms after again commencing treatment", "setting": "[2]; human, in vivo", "result": "≤ 24", "unit": "h"},
      {"measurement": "Women who no longer had hot flashes when on Dextromethorphan", "setting": "hot flashes [4]", "result": "four out of the five"}
    ]},
    {"smiles": "NCC1(CC(=O)O)CCCCC1", "note": "[gabapentin]", "values": [
      {"measurement": "Impact on reducing the menopausal symptoms (hot flashes, night sweats)", "setting": "[2]", "result": "no impact"},
      {"measurement": "Reduction of incidence of hot flashes", "setting": "hot flashes [1]; pilot trials", "result": "42%-70%"}
    ]}
  ]
}
